The results in this text go back to patent US9375000B2, “Pesticidal arylpyrrolidines” (Bayer Intellectual Property GmbH, priority 2011, dated 2016).

The test system of series [1] is mustard beetle larvae (Phaedon cochleariae). In words: Phaedon cochleariae test (PHAECO spray application). It is filed as in vivo. The settings on record: application rate 500 g/ha; after 7 days. As for the experimental part:
To produce a suitable preparation of active compound, 1 part by weight of active compound is mixed with the stated amount of solvent and emulsifier, and the concentrate is diluted with emulsifier-containing water to the desired concentration. Chinese cabbage (Brassica pekinesis) leaf-disks are sprayed with a preparation of the active ingredient of the desired concentration. Once dry, the leaf disks are infested with mustard beetle larvae (Phaedon cochleariae). After 7 days mortality in % is determined. 100% means that all beetle larvae have been killed and 0% means that none of the beetle larvae have been killed.

In series [2] the test system is fall armyworm larvae (Spodoptera frugiperda). In words: Spodoptera frugiperda test (SPODFR spray application). Conditions: application rate 500 g/ha; after 7 days. It is filed as in vivo. The procedure:
To produce a suitable preparation of the active compound, 1 part by weight of active compound is mixed with the stated amount of solvent and emulsifier, and the concentrate is diluted with emulsifier-containing water to the desired concentration. Maize (Zea mais) leaf sections are sprayed with a preparation of the active ingredient of the desired concentration. Once dry, the leaf sections are infested with fall armyworm larvae (Spodoptera frugiperda). After 7 days mortality in % is determined. 100% means that all caterpillars have been killed and 0% means that none of the caterpillars have been killed.

Series [3] in a line: log P by HPLC on reversed phase columns (EEC directive 79/831 Annex V.A8). It is filed as physicochemical. As for the experimental part: Calibration was done with not branched alkan2-ones (with 3 to 16 carbon atoms) with known log P-values (measurement of log P values using retention times with linear interpolation between successive alkanones). lambda-maX-values were determined using UV-spectra from 200 nm to 400 nm and the peak values of the chromatographic signals.

For series [4], the system named is two spotted spidermite (Tetranychus urticae), OP-resistant. The experiment in a line: Tetranychus urticae test, OP-resistant (TETRUR spray application). Conditions: application rate 500 g/ha; after 6 days. In kind it is in vivo. The procedure: To produce a suitable preparation of active compound, 1 part by weight of active compound is mixed with the stated amount of solvent and emulsifier, and the concentrate is diluted with emulsifier-containing water to the desired concentration. French beans (Phaseolus vulgaris) which are heavily infested with all stages of the two spotted spidermite (Tetranychus urticae), are sprayed with a preparation of the active ingredient at the desired concentration. After 6 days mortality in % is determined. 100% means that all spider mites have been killed and 0% means that none of the spider mites have been killed.

The next series concerns Ctenocephalides felis. The experiment in a line: Test against Ctenocephalides felis (CTECFE), blood feeding. In kind it is in vivo. Conditions: Ctenocephalides felis, in Bos taurus, 48 h, read-out: activity (mortality).
For series [5], the system named is Larvae of Spodoptera litura. In words: Larvae of Spodoptera litura, method using artificial feeds. In kind it is in vivo. The settings on record: Spodoptera litura, 168 h, artificial feed, after 7 days, read-out: insecticidal activity (pesticidal ratio); for pest or weed control at 4 ppm: active compound concentration 4 ppm; for pest or weed control at 20 ppm: active compound concentration 20 ppm. Summed up: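 Compound formulated in dimethylformamide with polyoxyethylene alkyl phenyl ether emulsifier, water-diluted and poured onto artificial diet. Five 3rd-instar Spodoptera litura larvae per cup, held at 25° C and 50-60% humidity. Mortality after 7 days expressed as pesticidal ratio.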

Series [6] has as its system adult engorged female Boophilus microplus ticks. The experiment in a line: Test against Boophilus microplus (dip). In kind it is in vivo. The settings on record: Rhipicephalus microplus, 168 h, read-out: activity (mortality).
A further series relates to Musca domestica. The experiment in a line: Test against Musca domestica. It is filed as in vivo. The settings on record: Musca domestica, 48 h, read-out: activity (mortality).
The next series concerns Thrips palmi. In words: Thrips palmi spray test (THRIPL). It is filed as in vivo. The settings on record: active compound concentration 20 ppm; after 6 days. An outline of the steps:
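Cucumber seedlings sprayed with compound formulated in DMF/polyoxyethylene alkyl phenyl ether and diluted in water, ammonium salt ± penetration enhancer at 1000 ppm added if needed. About 100 T. palmi eggs attached, plants held caged at 100% humidity, 23 °C. Percent activity scored from feeding damage after 6 days, 100 = no damage, 0 = as untreated.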

Series [7] relates to Cucurbit Leaf Beetle (Aulacophora femoralis). In words: Cucurbit leaf beetle (Aulacophora femoralis) cucumber leaf dip test. The settings on record: after 7 days; for pest or weed control at 4 ppm / pest or weed control at 20 ppm: Aulacophora, foliar, 168 h, read-out: insecticidal activity; for pest or weed control at 4 ppm: active compound concentration 4 ppm. In kind it is in vivo. An outline of the steps: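 Cucumber leaves dipped in compound formulated with DMF and polyoxyethylene alkyl phenyl ether, diluted in water, with ammonium salt or ammonium salt plus penetration enhancer at 1000 ppm added if necessary; dried leaves placed on sterilized soil with five second-instar larvae. Kept at 25° C; larval mortality counted after 7 days.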

The test system of series [8] is Lucilia cuprina 1st instar larvae. The experiment in a line: Test against Lucilia cuprina larvae. It is filed as in vivo. The settings on record: 48 h, read-out: activity (larval mortality). The procedure: Solvent: dimethyl sulfoxide
10 mg active compound are dissolve in 0.5 mL dimethyl sulfoxide. Serial dilutions are made to obtain the desired rates.
Approximately 20 Lucilia cuprina 1st instar larvae are transferred into a test tube containing 1 cm^3 of minced horse meat and 0.5 ml aqueous dilution of test compound. After 48 hrs percentage of larval mortality are recorded. 100% efficacy=all larvae are killed, […].

Series [9] has as its system Two-Spotted Spider Mite (Tetranychus urticae). The experiment in a line: Two-spotted spider mite (Tetranychus urticae) spray test on kidney bean. In kind it is in vivo. The settings on record: Tetranychus urticae, 168 h, after 7 days, read-out: acaricidal activity; for pest or weed control at 20 ppm: active compound concentration 20 ppm. An outline of the steps: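 Kidney bean plants at the two-leaf stage carried 50-100 adult mites and were sprayed one day later with compound in DMF/polyoxyethylene alkyl phenyl ether diluted in water. Ammonium salt and penetration enhancer at 1000 ppm were added if needed. Acaricidal activity (% mites killed) was scored after 7 days in a greenhouse.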

Series [10] deals with Tobacco Cutworm (Spodoptera litura) Larvae. The experiment in a line: Tobacco cutworm (Spodoptera litura) larvae, sweet potato leaf dip test. In kind it is in vivo. Conditions: active compound concentration 20 ppm; dead larvae after 7 days. An outline of the steps:
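Sweet potato leaves were dipped in DMF/emulsifier test solution at the set concentration and air-dried. Ten third-instar S. litura larvae were placed per dish at 25 °C, with fresh leaves added on days 2 and 4. Mortality was counted on day 7, given as % insecticidal activity averaged over two dishes.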

Where [11] appears, read: active compound concentration 20 ppm.

`Cc1cc(N2CCC(c3cc(Cl)cc(Cl)c3)(C(F)(F)F)C2O)ccc1CNC(=O)C1CC1` (mixture of isomers) [A1-77]: the “activity (mortality)” value in series [1] and in series [2] was 100% in each case. For the same compound, in [3], the log P (usually the decadic logarithm of the partition coefficient of the neutral form, usually between octanol and water) was determined as 3.91.
Turning to `Cc1cc(N2CCC(c3cc(Cl)cc(Cl)c3)(C(F)(F)F)C2O)ccc1CNC(=O)CC(F)(F)F` (mixture of isomers) [A1-79], the “activity (mortality)” value in series [1] worked out at 100%; in [4], 90%; in series [2] it was 83%. Besides, in [3], the log partition coefficient (log P) was determined as 4.09.
Regarding `O=C(NCc1ccc(N2CCC(c3cc(Cl)cc(Cl)c3F)(C(F)(F)F)C2O)cc1C(F)(F)F)C1CC1` (centres unmarked) [A1-409, N-{4-[3-(3,5-dichloro-2-fluorophenyl)-2-hydroxy-3-(trifluoromethyl)pyrrolidin-1-yl]-2-(trifluoromethyl)benzyl}cyclopropanecarboxamide], the mortality (as a rule, the percentage killed) at 100 ppm with Ctenocephalides felis turned out to be 100%; in [6], 90%; in the series with Musca domestica, 100%; in series [8], 100%. Also, the pest or weed control at 4 ppm in series [5], in series [7] and in series [9] (active compound concentration 4 ppm) was 100% throughout. In addition, the “insecticidal activity (by feeding damage degree)” value with Thrips palmi worked out at 98%.
`CCC(=O)NCc1ccc(N2CCC(c3cc(Cl)c(Cl)c(Cl)c3)(C(F)(F)F)C2O)nc1C(F)(F)F` (centres unmarked) [A3-13, N-({6-[2-hydroxy-3-(3,4,5-trichlorophenyl)-3-(trifluoromethyl)-pyrrolidin-1-yl]-2-(trifluoromethyl)pyridin-3-yl}methyl)propanamide]: the mortality at 100 ppm (in the series with Ctenocephalides felis; in the series on Musca domestica; in series [8]) was 100% each time. Besides, the pest or weed control at 20 ppm in [5], in series [7] (setting [11]) and in series [9] was 100% each time. The insecticidal activity in [10] was found to be 100%. The mortality at 20 ppm in series [6] stood at 100%.
Turning to `CCC(=O)NCc1cc(F)c(N2CCC(c3cc(Cl)cc(Cl)c3)(C(F)(F)F)C2O)nc1Cl` (centres unmarked) [A3-356], the “activity (mortality)” value in series [1], in series [4] and in [2] was 100% each time. For the same compound, in series [7] (setting [11]), the insecticidal activity amounted to 100%. Also, the lipophilicity (logP) (in general, the decadic logarithm of the partition coefficient of the neutral form, usually between octanol and water) in series [3] (HPLC on reversed phase columns) was determined as 3.86.
For the compound `O=C(NCc1cc(F)c(N2CCC(c3cc(Cl)cc(Cl)c3)(C(F)(F)F)C2O)nc1Cl)C1CC1` (centres unmarked) [A3-359], the “activity (mortality)” value in series [1], in series [4] and in series [2] was 100% in each case.
In the case of `O=C(NCc1cnc(N2CCC(c3cc(C(F)(F)F)cc(C(F)(F)F)c3)(C(F)(F)F)C2O)cc1C(F)(F)F)C1CC1` (centres unmarked) [A5-27, N-{[6-{3-[3,5-bis(trifluoromethyl)phenyl]-2-hydroxy-3-(trifluoromethyl)pyrrolidin-1-yl}-4-(trifluoromethyl)pyridin-3-yl]methyl}cyclopropanecarboxamide], the mortality at 100 ppm (with Ctenocephalides felis; in [6]; in the series on Musca domestica; in series [8]) was 100% throughout. The pest or weed control at 4 ppm in [5] and in series [7] was 100% in each case. The pest or weed control at 20 ppm in series [5], in [7] (setting [11]) and in series [9] was 100% in each case. The “insecticidal activity (by feeding damage degree)” value with Thrips palmi is 90%.
